Here are results for three molecules from the NIST ThermoML archive (doi:10.1016/j.jct.2017.04.009).

The nature of the data set: xn = mol fraction of the nth substance listed. The following applies: Liquid, pressure decay method, x1 = 0.

With `CCF` [fluoroethane] + CCCCCCn1cc[n+](C)c1.F[B-](F)(F)F, the binary diffusion coefficient by setting is: (303.2 K, 101 kPa) 1.23e-10 m2/s; (313.2 K, 97.7 kPa) 1.91e-10 m2/s; (323.2 K, 104.5 kPa) 2.54e-10 m2/s; (333.2 K, 102.4 kPa) 3.36e-10 m2/s; (343.2 K, 101.6 kPa) 4.2e-10 m2/s.
Take `FC(F)C(F)(F)F` [pentafluoroethane] + CCCCCC[n+]1ccn(C)c1.O=S(=O)([N-]S(=O)(=O)C(F)(F)F)C(F)(F)F: the binary diffusion coefficient was determined as 1.02e-10 m2/s (303.2 K, 93.2 kPa); 1.48e-10 m2/s (313.2 K, 94.5 kPa); 2.24e-10 m2/s (323.2 K, 95.6 kPa); 3.13e-10 m2/s (333.2 K, 95.7 kPa); 4.21e-10 m2/s (343.2 K, 100.2 kPa).
As for `FC(F)C(F)(F)F` [pentafluoroethane] + CCCCCCn1cc[n+](C)c1.F[B-](F)(F)F, the binary diffusion coefficient is, setting by setting: (303.2 K, 151.8 kPa) 6.3e-11 m2/s; (313.2 K, 164 kPa) 1.24e-10 m2/s; (323.2 K, 169.7 kPa) 2.16e-10 m2/s; (333.2 K, 176.2 kPa) 2.95e-10 m2/s; (343.2 K, 172.3 kPa) 3.66e-10 m2/s.
